From publication PMC10123561 (Signal Transduction and Targeted Therapy, 2023)
Several values for one entry are separate records, joined by “and”; a condition that tells them apart may be missing. Identical values can stand only once. Counter-ions that a name gives are not always drawn.

Assays:
SARS-CoV-2 Delta = assay type: cell-based
SARS-CoV-2 Omicron = assay type: cell-based

Row | Compound | EC50 (SARS-CoV-2 Delta) | EC50 (SARS-CoV-2 Omicron)
1 | CCC(CC)COC(=O)[C@H](C)N[P@](=O)(OC[C@H]1O[C@@](C#N)(c2ccc3c(N)ncnn23)[C@H](O)[C@@H]1O)Oc1ccccc1 [Remdesivir] | 850 nM and 1110 nM | 1500 ± 200 nM
2 | Cc1c(O)cccc1C(=O)N[C@@H](CSc1ccccc1)[C@H](O)CN1C[C@H]2CCCC[C@H]2C[C@H]1C(=O)NC(C)(C)C [nelfinavir, Nelfinavir Mesylate] | 2090 nM and 1760 nM | 2030 nM and 1730 nM
